The nature of experiment [1]: Stopped-flow spectrometry of peroxynitrite decomposition, absorption of peroxynitrite at 324 nm monitored. It is filed as biochemical. The conditions noted are these: pH 7.4 phosphate buffer. How it is done:
FIG. 4 is stopped-flow spectroscopy of peroxynitrite decomposition catalyzed by FeTDCImP (12). (A) diode array scan of 10 μM (12) in pH 7.4 PBS mixed with 600 μM, t=2 s; (B) decay of peroxynitrite monitored at 324 nm, condition that same as in A. It was fitted into a first order kinetics model using KinetAssyst software. Data was average of four parallel experiments.
It was rationalized that the electron-withdrawing cationic feature elevated its catalytic activity as compared to anionic porphyrins, while its electron-donating anionic feature lowered its catalytic activity as compared to cationic porphyrins.

A short description of experiment [2]: Determination of peroxynitrite decomposition catalysis: rates of reaction between peroxynitrite and iron porphyrins in phosphate buffer. Type of experiment: biochemical. The note with it: phosphate buffer pH=7.4. Here is the method: To screen compounds for peroxynitrite decomposition catalytic activity of the invention, peroxynitrite is prepared and isolated as its sodium salt by the reaction of acidic hydrogen peroxide with sodium nitrite followed by rapid quenching with NaOH as set out by Halfpenny and Robinson, in J. Chem. Soc., 928-938 (1952). Peroxynitrite has an absorbance maximum at 302 nm with an extinction coefficient of 1670 M^−1 cm^−1. Therefore, it is possible to directly observe the decomposition of peroxynitrite by monitoring the change in absorbance at 302 nm by stop-flow spectrophotometric analysis. For example, the decomposition of peroxynitrite at an accelerated rate (relative to the natural decomposition rate of peroxynitrite) upon the addition of the decomposition catalysts of the invention.
A high rate of peroxynitrite decomposition is an important indicator of biological activity in vitro and in vivo. The rates of reaction between peroxynitrite and various iron porphyrins were measured at several different concentrations of catalyst in phosphate buffer (pH=7.4). The ONOO^− decay rate (M^−1s^−1) for FeTDMImP was determined to be […], and the keat, for FeTDCMImP was measured at 4.6×10^5. In the same studies the decay rates for the iron porphyrins FeTDMImP, FeTDCMImP, FeTDPImP (see, e.g., U.S. Pat. No. 6,448,239) were 1.1×10^6. 4.6×10^5 and 1.9×10^6, respectively.

With “iron(III) meso-tetrakis(N,N-dicarboxymethyl)-imidazol-2-yl)porphyrin [FeTDCMImP]”, in experiment [1], the “second order rate constant of peroxynitrite decomposition” value turned out to be 430000 M⁻¹ s⁻¹. For the same compound, in experiment [2], the “decay rates for the iron porphyrins (in the same studies)” value is 4.6×10^5 and the keat is 4.6×10^5.

On to `COCCOCCn1cc[n+](CCOCCOC)c1-c1c2nc(c(-c3n(CCOCCOC)cc[n+]3CCOCCOC)c3ccc([n-]3)c(-c3n(CCOCCOC)cc[n+]3CCOCCOC)c3nc(c(-c4n(CCOCCOC)cc[n+]4CCOCCOC)c4ccc1[n-]4)C=C3)C=C2.[Fe+3]` [FeTDPImP, iron(III) meso-tetrakis(N,N-di-(2-(2-methoxyethoxy)ethyl)-imidazol-2-yl)porphyrin], for which the “decay rates for the iron porphyrins (in the same studies)” value in experiment [2] is on record as 1.9×10^6.

Source of the values: patent US8334377B2, “Porphyrin catalysts and methods of use thereof” (The Trustees of Princeton University, priority 2006, dated 2012).
